Test results published in patent publication US20240158446A1, “CYCLIC COMPOUND HAVING SELECTIVE INHIBITORY ACTION ON KRAS OVER HRAS AND NRAS” (CHUGAI SEIYAKU KABUSHIKI KAISHA, priority 2021, published 2024).

How the values were obtained:
[1] = target: GDP-bound KRAS wild-type protein (Homo sapiens, UniProt P01116); experiment: Binding to KRAS by surface plasmon resonance (SPR), Single Cycle Kinetics; conditions: SPR, Single Cycle Kinetics, 1:1 binding model; GDP-bound KRAS wild-type protein; read-out: KRAS KD
Sequence of GDP-bound KRAS wild-type protein (P01116 whole entry): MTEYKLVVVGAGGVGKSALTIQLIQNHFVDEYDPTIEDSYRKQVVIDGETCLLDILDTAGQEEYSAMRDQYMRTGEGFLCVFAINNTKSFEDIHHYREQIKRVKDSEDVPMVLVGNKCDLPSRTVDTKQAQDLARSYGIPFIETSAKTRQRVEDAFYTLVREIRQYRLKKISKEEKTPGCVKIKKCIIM

[2] = target: GDP-bound NRAS wild-type protein (Homo sapiens, UniProt P01111); experiment: Binding to NRAS by surface plasmon resonance (SPR), Single Cycle Kinetics; conditions: SPR; GDP-bound NRAS wild-type protein vs GDP-bound KRAS wild-type protein; KD ratio class
Sequence of GDP-bound NRAS wild-type protein (P01111 whole entry): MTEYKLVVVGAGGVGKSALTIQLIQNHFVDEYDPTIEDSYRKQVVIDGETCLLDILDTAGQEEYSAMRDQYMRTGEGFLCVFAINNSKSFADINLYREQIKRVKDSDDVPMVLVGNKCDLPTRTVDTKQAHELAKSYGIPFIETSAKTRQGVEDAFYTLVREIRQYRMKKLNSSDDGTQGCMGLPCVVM

[3] = target: GDP-bound HRAS wild-type protein (Homo sapiens, UniProt P01112); experiment: Binding to HRAS by surface plasmon resonance (SPR), Single Cycle Kinetics; conditions: SPR; GDP-bound HRAS wild-type protein vs GDP-bound KRAS wild-type protein; KD ratio class
Sequence of GDP-bound HRAS wild-type protein (P01112 whole entry): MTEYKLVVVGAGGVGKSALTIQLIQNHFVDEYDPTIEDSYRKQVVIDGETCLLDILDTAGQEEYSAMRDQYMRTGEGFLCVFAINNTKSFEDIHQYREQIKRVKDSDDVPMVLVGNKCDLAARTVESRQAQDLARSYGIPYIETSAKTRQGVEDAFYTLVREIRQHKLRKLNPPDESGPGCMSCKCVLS

[4] = system: human lung cancer strain NCI-H441;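 also: cell proliferation inhibition after four days measured by CellTiter-Glo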

Kd [1] [nM] | IC50 [4] [nM] | Compound | NRAS/KRAS (ratio of KD value for NRAS to KD value for KRAS) [2] | HRAS/KRAS (ratio of KD value for HRAS to KD value for KRAS) [3]
0.069 | 7.3 | CCO[C@@H]1C[C@H]2C(=O)NC3(CCC3)C(=O)N(C)[C@@H](C3CCCC3)C(=O)N(C)[C@H](C(=O)N(C)C)CC(=O)N(C)[C@@H](CC3CCCC3)C(=O)N[C@@H]([C@@H](C)CC)C(=O)N(C)CC(=O)N(C)[C@H]3C/C=C\CCN(C3=O)[C@@H](Cc3ccc(C(F)(F)F)cc3)C(=O)N(C)CC(=O)N[C@@H](CCc3ccc(C(F)(F)F)c(OC)c3)C(=O)N2C1 [PP1248, (2S,8S,12R,14S,20S,23S,27S,30S,36S,38Z)-20-cyclopentyl-27-(cyclopentylmethyl)-12-ethoxy-8-[2-[3-methoxy-4-(trifluoromethyl)phenyl]ethyl]-N,N,4,19,22,26,32,35-octamethyl-30-[(1S)-1-methylpropyl]-3,6,9,15,18,21,25,28,31,34,42-undecaoxo-2-[[4-(trifluoromethyl)phenyl]methyl]spiro[1,4,7,10,16,19,22,26,29,32,35-undecazatricyclo[34.5.1.0^10,14]dotetracont-38-ene-17,1′-cyclobutane]-23-carboxamide] | A (a compound having 10 or more and less than 20 is denoted as A) | A (a compound having 10 or more and less than 20 is denoted as A)
0.18 | 55.4 | CCO[C@@H]1C[C@H]2C(=O)NC3(CCC3)C(=O)N(C)[C@@H](C3CCCC3)C(=O)N(C)[C@H](C(=O)N(C)C)CC(=O)N(C)[C@@H](CC)C(=O)N[C@@H]([C@@H](C)CC)C(=O)N(C)CC(=O)N(C)[C@H]3C/C=C\CCN(C3=O)[C@@H](Cc3ccc(C(F)(F)F)cc3)C(=O)N(C)CC(=O)N[C@@H](CCc3ccc(Cl)c(Cl)c3)C(=O)N2C1 [PP1249] | A (a compound having 10 or more and less than 20 is denoted as A) | A (a compound having 10 or more and less than 20 is denoted as A)
0.19 | 18.7 | CCC[C@H]1C(=O)N[C@@H]([C@@H](C)CC)C(=O)N(C)CC(=O)N(C)[C@H]2C/C=C\CCN(C2=O)[C@@H](Cc2ccc(C(F)(F)F)cc2)C(=O)N(C)CC(=O)N[C@@H](CCc2ccc(Cl)c(Cl)c2)C(=O)N2C[C@H](OCC)C[C@H]2C(=O)NC2(CCC2)C(=O)N(C)[C@@H](C2CCCC2)C(=O)N(C)[C@H](C(=O)N(C)C)CC(=O)N1C [PP1250] | AA (a compound having 20 or more is denoted as AA) | A (a compound having 10 or more and less than 20 is denoted as A)
0.18 | 10.2 | CCO[C@@H]1C[C@H]2C(=O)NC3(CCC3)C(=O)N(C)[C@@H](C3CCCC3)C(=O)N(C)[C@H](C(=O)N(C)C)CC(=O)N(C)[C@@H](CC(C)C)C(=O)N[C@@H]([C@@H](C)CC)C(=O)N(C)CC(=O)N(C)[C@H]3C/C=C\CCN(C3=O)[C@@H](Cc3ccc(C(F)(F)F)cc3)C(=O)N(C)CC(=O)N[C@@H](CCc3ccc(Cl)c(Cl)c3)C(=O)N2C1 [PP1251] | AA (a compound having 20 or more is denoted as AA) | A (a compound having 10 or more and less than 20 is denoted as A)
0.3 | 51.2 | CCCCCC[C@H]1C(=O)N[C@@H]([C@@H](C)CC)C(=O)N(C)CC(=O)N(C)[C@H]2C/C=C\CCN(C2=O)[C@@H](Cc2ccc(C(F)(F)F)cc2)C(=O)N(C)CC(=O)N[C@@H](CCc2ccc(Cl)c(Cl)c2)C(=O)N2C[C@H](OCC)C[C@H]2C(=O)NC2(CCC2)C(=O)N(C)[C@@H](C2CCCC2)C(=O)N(C)[C@H](C(=O)N(C)C)CC(=O)N1C [PP1252] | AA (a compound having 20 or more is denoted as AA) | A (a compound having 10 or more and less than 20 is denoted as A)
